Target: T1, aldose reductase (Rattus norvegicus, UniProt P07943)
T1 construct: Lenses were removed from 20 eyeballs of rats and homogenized in 4 ml of 5 mM mercaptethanol; from tissue; host or cells: rat lens, 10,000 rpm supernatant of homogenate
Assay: Aldose reductase-inhibiting activity (absorbance change at 340 nm, homogenate of rat lenses as enzyme source, glyceroaldehyde substrate, NADPH coenzyme)
Type: biochemical
Details: rat lens homogenate, 10 mM D,L-glyceroaldehyde, 0.4M Li2SO4, initial one minute
Description: The change in absorbance at 340 nm for initial one minute was measured, and the inhibiting activity was determined.
Lenses were removed from 20 eyeballs of rats and homogenized in 4 ml of 5 mM mercaptethanol using Glass-Teflon Homogenate. The obtained homogenate was centrifuged at 4° C. and 10,000 rpm for 20 minutes, and resulting supernatant was used as the enzyme source.

| IC50 (mass concentration) [nM] | IC50 (molar value in parentheses) [nM] | Ic50 (mass concentration) [ng/mL] | SMILES |
| --- | --- | --- | --- |
| 8.33 | 8.2 | – | O=C(O)CCC1(O)OC2=CC(=O)c3c(O)cc(O)cc3C2=C1c1ccc(O)cc1 (stereo not drawn) [RF-3192 A] |
| – | 4.2 | 1.6 | O=C(O)CCC1(O)OC2=CC(=O)c3c(O)cc(O)cc3C2=C1c1ccccc1 (stereo not drawn) [RF-3192 B] |
| – | 340 | 130 | O=C1C=C2OC3(O)CC(=O)c4c(O)cc(O)cc4C3=C2c2cc(O)cc(O)c21 (stereo not drawn) [RF-3192 C] |

From patent publication US5284870A, “Aldose reductase inhibitor” (Shionogi Seiyaku Kabushiki Kaisha, priority 1992, dated 1994)
